Measurements published in patent US20200325518A1, “Systems and Methods for Metabolic Assessment Utilizing 1-Methoxy-PMS Field” (priority 2019, published 2020).
Converted amounts (≈) assume the structure as drawn. Like-named read-outs stand apart in the source and are kept apart here.

Legend:
Format in all cases: cell-based
E. coli = assay: CLSI overnight reference method MIC of antimicrobials against E. coli strains; details: for MIC (CLSI Ref): unit assumed
P. aeruginosa = assay: Rapid AST by surface binding of europium probe with time resolved fluorescence; details: Pseudomonas aeruginosa
Protocol: The x-axis of each graph denotes the concentrations of antimicrobial Amikacin (AMK) in micrograms/milliliter, and the y-axis denotes fluorescence from binding to bacteria surface. Growth check data measured by optical density (Absorbance at 600 nm) of the bacterial culture is denoted for each strain.
AST was performed by surface binding of probe followed by time resolved fluorescence. The P aeruginosa strains were incubated at 35° C. in shaking conditions for 4 hours for attaining growth, and growth check was performed by measuring absorbance of the culture at 600 nm after 4 hours of growth.

Bacteria = assay: BacTiter-Glo luminescence after incubation of bacteria with or without resazurin; details: bacteria incubated 4 hours at 35° C. in presence of resazurin versus added after incubation
Protocol: Bacteria were inoculated into 96-well microplates comprise cation-adjusted Mueller Hinton broth in the presence and absence of resazurin (alamarBlue™) and incubated at 35° C. for 4 hours. For wells that were not incubated with resazurin, the growth indicator was added immediately after the 4-hour incubation. BacTiter-Glo® reagent (Promega, Madison, Wis.) was added to all wells and luminescence was measured. […] Thus, it can be advantageous to remove growth indicator from test wells during incubation.

[1] = E. coli strain Clinical Sample 1
[2] = E. coli strain Clinical Sample 2
[3] = E. coli strain Clinical Sample 4
[4] = E. coli strain Clinical Sample 5
[5] = E. coli strain Clinical Sample 6
[6] = E. coli strain Clinical Sample 7
[7] = E. coli strain Clinical Sample 8
[8] = E. coli strain Clinical Sample 9
[9] = E. coli strain Clinical Sample 10
[10] = E. coli strain Clinical Sample 11
[11] = E. coli strain Clinical Sample 12
[12] = E. coli strain Clinical Sample 13

Molecule	MIC (CLSI Ref) (E. coli; E. coli strain BEI 4.097) [µg/mL]	MIC (CLSI Ref) (E. coli; E. coli strain CDC Carba36) [µg/mL]	MIC (CLSI Ref) (E. coli; [1]) [µg/mL]	MIC (CLSI Ref) (E. coli; [2]) [µg/mL]	MIC (CLSI Ref) (E. coli; [3]) [µg/mL]	MIC (CLSI Ref) (E. coli; [4]) [µg/mL]	MIC (CLSI Ref) (E. coli; [5]) [µg/mL]	MIC (CLSI Ref) (E. coli; [6]) [µg/mL]	MIC (CLSI Ref) (E. coli; [7]) [µg/mL]	MIC (CLSI Ref) (E. coli; [8]) [µg/mL]	MIC (CLSI Ref) (E. coli; [9]) [µg/mL]	MIC (CLSI Ref) (E. coli; [10]) [µg/mL]	MIC (CLSI Ref) (E. coli; [11]) [µg/mL]	MIC (CLSI Ref) (E. coli; [12]) [µg/mL]	MIC (P. aeruginosa; P. aeruginosa Strain 1, growth check value 2.18, 4 hours growth, read-out: MIC) [µg/mL]	MIC (P. aeruginosa; P. aeruginosa Strain 2, growth checkpoint value 1.13, no reliable MIC data obtained, read-out: MIC expected) [µg/mL]	CLSI breakpoint interpretation (E. coli; [2])	luminescent signal upon addition of BacTiter-Glo (viable bacteria) (Bacteria)
C[C@@H](O)[C@H]1C(=O)N2C(C(=O)O)=C(S[C@@H]3CN[C@H](C(=O)Nc4cccc(C(=O)O)c4)C3)[C@H](C)[C@H]12 [ERT, Ertapenem]	0.008	0.12	0.008	0.015	0.008	0.008	0.008	0.008	0.25	0.12	0.008	0.008	0.008	0.016	–	–	–	–
CC(C)(O/N=C(\C(=O)N[C@@H]1C(=O)N2C(C(=O)[O-])=C(C[n+]3ccccc3)CS[C@H]12)c1csc(N)n1)C(=O)O [CAZ, Ceftazidime]	0.25	4	0.25	2	0.25	0.25	0.12	0.25	> 32	> 32	0.12	0.25	0.12	0.12	–	–	–	–
C[C@H]1[C@H](NC(=O)/C(=N\OC(C)(C)C(=O)O)c2csc(N)n2)C(=O)N1S(=O)(=O)O [ATM, Aztreonam]	< 0.25	8	< 0.25	0.5	< 0.25	< 0.25	< 0.25	< 0.25	64	32	< 0.25	< 0.25	< 0.25	< 0.25	–	–	–	–
NCC[C@H](O)C(=O)N[C@@H]1C[C@H](N)[C@@H](O[C@H]2O[C@H](CN)[C@@H](O)[C@H](O)[C@H]2O)[C@H](O)[C@H]1O[C@H]1O[C@H](CO)[C@@H](O)[C@H](N)[C@H]1O [AMK, Amikacin]	4	4	4	4	4	4	4	2	4	4	8	4	4	4	8 (≈ 13.7 µM)	8 (≈ 13.7 µM)	–	–
Ampicillin/sulbactam [SAM]	8	> 32	4	16	16	8	2	16	64	32	16	4	2	> 32	–	–	I	–
CC1(C)S[C@@H]2[C@H](NC(=O)[C@H](N)c3ccccc3)C(=O)N2[C@H]1C(=O)O [AMP, Ampicillin]	4	> 32	4	> 32	> 32	> 32	4	> 32	> 32	> 32	> 32	4	4	> 32	–	–	–	–
NC[C@H]1O[C@H](O[C@H]2[C@H](O)[C@@H](O[C@H]3O[C@H](CO)[C@@H](O)[C@H](N)[C@H]3O)[C@H](N)C[C@@H]2N)[C@H](N)C[C@@H]1O [TOB, Tobramycin]	1	1	2	1	1	1	1	1	2	4	16	1	1	1	–	–	–	–
Colistin [CST]	0.12	0.25	0.12	0.12	0.25	0.25	0.12	0.12	0.12	0.5	0.25	0.5	0.25	0.25	–	–	–	–
Gentamycin	0.5	2	0.5	4	0.5	2	0.5	0.5	1	1	> 16	2	1	1	–	–	–	–
O=c1ccc2[n+]([O-])c3ccc(O)cc3oc-2c1 [resazurin, 7-hydroxy-10-oxidophenoxazin-10-ium-3-one]	–	–	–	–	–	–	–	–	–	–	–	–	–	–	–	–	–	less luminescent signal
Piperacillin/tazobactam [TZP]	4	128	4	8	4	4	2	4	32	> 128	2	2	2	32	–	–	–	–
